This is an account of results in patent publication US20190382850A1, “METHOD FOR IDENTIFYING MITOCHONDRIAL DNA IN EXTRACELLULAR VESICLES AND TREATMENT OF MTDNA-RELATED DISORDERS AND CANCER” (Memorial Sloan-Kettering Cancer Center, priority 2017, published 2019).

Molecules are shown by their SMILES.

The test system of the test is MCF7 xenografts. Kind of test: Tumor growth (BLI) of MCF7 mammary fat pad xenografts treated with HT. The class given is in vivo, mice. To be noted: weekly fulvestrant, FIG. 2a. From the text:
(Panel a) Representative tumor growth kinetics (BLI) of GFP+/Luciferase+MCF7 xenografts (n=10) treated with weekly fulvestrant once mammary fat pad tumors were established (after 3 months) which led to a period (4 months) of disease stability on HT (HTS) followed by exponential growth on HT (HTR). Representative H&E images of tumors and primary cultures from unsorted as well as FACS purified cancer cells (GFP+/Epcam+) and murine CAFs (GFP−/Epcam). Scale bar 20 μm. (Panel b) OXPHOS potential in tumor-derived cancer cells (panel a) was measured±HT (fulvestrant, 10 μM) by Seahorse. (Panel c) mtDNA/nDNA (human and murine) level as Fold change (log10scale) in cancer cells and mCAFs isolated from HTS and HTR disease (panel a). (Panel d) Percentage of metastatic lesions isolated by FACS from tumor-bearing mice (n=8/group) expressing murine mtDNA as determined by ND1 qPCR (2 ng of total DNA). Oxygen consumption rates (OCR) in murine-mtDNApos and ctrl HTR cells determined by Seahorse. (Panel e) Murine mitochondrial RNA expression (12 genes: ND1, ND2, COX2, ATP8, ATP6, COX3, ND3, ND4L, ND4, ND5, ND6, CytB) as fold change (logioscale) determined by qRT-PCR in HTR and HTS cells (panel a). […]
All cancer cell lines were engineered to express a GFP positive luciferase expression vector for in vitro and in vivo imaging studies. […] EV-number was determined by Nanosight. […]

As for `C[C@]12CC[C@@H]3c4ccc(O)cc4C[C@@H](CCCCCCCCC[S+]([O-])CCCC(F)(F)C(F)(F)F)[C@H]3[C@@H]1CC[C@@H]2O` (stereo partly shown) [fulvestrant], the “growth pattern of tumors in tumor-bearing mice treated with HT” value is given as “no growth for 4 months (HTS) followed by exponential growth (HTR)”.
